Source: US20160045487A1, “COMPOSITIONS AND METHODS FOR TREATING NEUROPATHY” (CHILDEREN'S MEDICAL CENTER CORPORATION, priority 2013, published 2016)

Target: T1, RET (Homo sapiens, UniProt P07949+P56159)
T1 construct: endogenous in cells; host or cells: SH-SY5Y (SH-SY5Y-THpGL3) human neuroblastoma cells
Test: RET phosphorylation phospho-tyrosine Western blot in SH-SY5Y cells
Format: cell-based
Text: One goal of these studies was to determine if XIB4035 could be used for treating SFN in humans. Using the Neuro2A (N2A) murine neuroblastoma cell line, Tokugawa et al. (supra) reported XIB4035 as a competitive agonist for the GDNF receptor GFRα1 that activates the RET receptor. Since populations of DRG sensory neurons express different GFRα receptors, thus making them preferentially responsive to the particular ligands, it was important to determine if XIB4035 was specific to GFRα1 or could act on other family members. Since PSPN has no effect on peripheral sensory neurons, the GFRα1, GFRα2, and GFRα3 receptors were the focus of these studies. The SH-SY5Y, a human neuroblastoma cell line expressing mRNA for GFRα1, GFRα2, and GFRα3, was used to perform two cell-based assays; immunoblots measuring RET phosphorylation and a luciferase reporter assay using the tyrosine hydroxylase (TH) promoter. For the latter two paradigms were used, either overnight treatment immediately followed by luciferase activity measurements or 10 minute treatments followed by washout and overnight incubation prior to measurements. GDNF and ARTN induced robust TH-luciferase activity in a dose dependent manner (FIG. 3E). Because the responses to GDNF and ARTN were more robust, these two factors were chosen for further analysis.
Since the original report argued that XIB4035 displaces GDNF binding to GFRα1 expressing cells (FIG. 2 in Tokugawa et al., Neurochem Int 42, 81-86 (2003).), potentially ARTN, on TH-luciferase activity and Ret phosphorylation. […] In this experiment, cells were treated with GDNF or ARTN with or without XIB4035 for 10 minutes and cell lysates were either collected immediately or treatment was washed out and replaced with growth media for 30, 60, or 120 minutes. […] Therefore, we tested cells expressing only one GFRα using either N2A cells (which express RET) transfected with GFRα1 or GFRα3 expression constructs, or B(E)2-C cells, which express only GFRα2 together with RET. […]

T1 sequence (P07949 29-1114): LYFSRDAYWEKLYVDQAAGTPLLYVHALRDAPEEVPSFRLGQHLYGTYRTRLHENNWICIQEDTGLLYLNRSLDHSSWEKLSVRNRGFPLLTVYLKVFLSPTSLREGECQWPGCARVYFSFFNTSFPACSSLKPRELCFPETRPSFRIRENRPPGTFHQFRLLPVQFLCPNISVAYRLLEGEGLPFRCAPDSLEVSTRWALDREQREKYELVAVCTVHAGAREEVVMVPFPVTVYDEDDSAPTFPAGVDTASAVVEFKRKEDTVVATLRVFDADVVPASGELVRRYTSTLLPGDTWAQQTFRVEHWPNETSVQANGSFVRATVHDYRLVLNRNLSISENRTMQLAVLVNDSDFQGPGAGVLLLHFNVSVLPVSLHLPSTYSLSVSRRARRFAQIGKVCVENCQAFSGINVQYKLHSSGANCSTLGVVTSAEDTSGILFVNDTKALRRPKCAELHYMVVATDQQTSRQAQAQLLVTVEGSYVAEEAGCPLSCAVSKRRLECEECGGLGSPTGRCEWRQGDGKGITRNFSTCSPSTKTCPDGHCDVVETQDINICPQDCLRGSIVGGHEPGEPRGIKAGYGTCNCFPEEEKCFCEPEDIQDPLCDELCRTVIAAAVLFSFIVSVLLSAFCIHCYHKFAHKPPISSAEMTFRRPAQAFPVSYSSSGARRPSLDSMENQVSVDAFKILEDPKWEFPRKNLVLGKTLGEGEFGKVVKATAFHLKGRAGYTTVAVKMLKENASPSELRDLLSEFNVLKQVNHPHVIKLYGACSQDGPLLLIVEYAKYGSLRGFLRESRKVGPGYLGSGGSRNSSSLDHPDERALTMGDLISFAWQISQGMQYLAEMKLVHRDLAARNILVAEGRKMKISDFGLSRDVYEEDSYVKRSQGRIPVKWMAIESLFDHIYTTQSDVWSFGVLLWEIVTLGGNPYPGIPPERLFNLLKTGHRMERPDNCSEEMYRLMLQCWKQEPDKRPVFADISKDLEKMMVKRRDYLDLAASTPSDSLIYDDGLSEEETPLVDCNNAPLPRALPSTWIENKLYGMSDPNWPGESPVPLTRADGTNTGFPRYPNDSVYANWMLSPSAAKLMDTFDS
T1 sequence (P56159 25-429 limits assumed): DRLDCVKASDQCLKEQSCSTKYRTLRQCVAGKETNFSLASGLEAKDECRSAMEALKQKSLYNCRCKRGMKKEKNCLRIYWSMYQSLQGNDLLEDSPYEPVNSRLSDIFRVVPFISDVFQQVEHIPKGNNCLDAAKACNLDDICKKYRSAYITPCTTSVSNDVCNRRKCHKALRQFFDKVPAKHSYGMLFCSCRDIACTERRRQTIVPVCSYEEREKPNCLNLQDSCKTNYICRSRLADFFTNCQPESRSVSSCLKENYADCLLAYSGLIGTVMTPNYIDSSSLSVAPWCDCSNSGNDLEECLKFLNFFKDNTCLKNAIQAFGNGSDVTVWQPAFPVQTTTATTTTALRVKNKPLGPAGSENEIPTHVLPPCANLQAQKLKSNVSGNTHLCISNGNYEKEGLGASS

## CCN(CC)CCCC(C)Nc1cc(/C=C/c2ccccc2Cl)nc2cc(Cl)ccc12 (centres unmarked) [XIB4035, N4-{7-chloro-2-[(E)-2-(2-chloro-phenyl)-vinyl]-quinolin-4-yl}-N1,N1-diethyl-pentane-1,4-diamine]
20 μM XIB4035 with 2 nM GDNF or 1 nM ARTN, 10 minutes treatment
  duration of ligand-induced RET phosphorylation after washout: at least 120 minutes
XIB4035 alone, various concentrations, two or 10 minutes
  induction of RET phosphorylation: failed to induce RET phosphorylation
